# What was measured:
# SN12C/renal carcinoma = assay: NCI in vitro antiproliferative screen (SRB, GI50); assay type: cell-based, human
# Description: (§1) In Vitro antipoliferative study of Compound 2a was performed by the National Cancer Institute (National Institutes of Health, Bethesda, Md., USA) against a panel of cancer cell lines in order to determine the concentrations needed to obtain a 50% inhibition of cell proliferation (IC50). The operation of this unique screen utilizes 60 different human tumor cell lines, representing leukemia, melanoma, and cancers of the lung, colon, brain, ovary, breast prostate and kidney. Compound 2(a) was provided as a lyophilized powder with an estimated purity of 90+%. The compound was stored at −20° C. until day of use.
# (§2) The human tumor cell lines of the cancer-screening panel were grown in RPMI 1640 medium containing 5% fetal bovine serum and 2 mM L-glutamine. For a typical screening experiment, cells were inoculated into 96 well microtiter plates in 100 μl at plating densities ranging from 5000 to 40,000 cells/well depending on the doubling time of individual cell lines (Table 8). After cell inoculation, the microtiter plates were incubated at 37° C., under 5% CO2, 95% air and 100% relative humidity for 24 hours prior to addition of the experimental drugs.
# (§3) After 24 hours, two plates of each cell line were fixed in situ with TCA, to represent a measurement of the cell population for each cell line at the time of drug addition (Tz). Compound 2(a) was solubilized in dimethyl sulfoxide at 400-fold the desired final maximum test concentration and stored frozen prior to use. At the time of drug addition, an aliquot of frozen concentrate was thawed and diluted to twice the desired final maximum test concentration with complete medium containing 50 μg/ml gentamicin. Additional four, serial dilutions were made to provide a total of five drug concentrations plus control. Aliquots of 100 μl of these different drug dilutions were added to the appropriate microtiter wells already containing 100 μl of medium, resulting in the required final drug concentrations (2.5×10^−5 M to 2.5×10^−9 M).
# (§4) Following drug addition, the plates were incubated for an additional 48 hours at 37° C., 5% CO2, 95% air, and 100% relative humidity. For adherent cells, the assay was terminated by the addition of cold TCA. Cells were fixed in situ by the gentle addition of 50 μl of cold 50% (w/v) TCA (final concentration, 10% TCA) and incubation for 60 minutes at 4° C. The supernatant was discarded, and the plates were washed five times with tap water and air-dried. Sulforhodamine B (SRB) solution (100 μl) at 0.4% (w/v) in 1% acetic acid was added to each well, and plates were incubated for 10 minutes at room temperature. After staining, unbound dye was removed by washing five times with 1% acetic acid and the plates were air-dried. Bound stain was subsequently solubilized with 10 mM trizma base, and the absorbance was read on an automated plate reader at a wavelength of 515 nm. For suspension cells, the methodology was the same except that the assay was terminated by fixing settled cells at the bottom of the wells by gently adding 50 μl of 80% TCA (final concentration, 16% TCA).
# (§5) The growth inhibitory power of compound 2(a) was measured by NCl utilizing the GI50 value, rather than the classical IC50 value. The GI50 value emphasizes the correction for the cell count at time zero and, using the seven adsorbance measurements [time zero (Tz), control growth (C), and the test growth in the presence of drug at each of the five concentration levels (Ti)], GI50 is calculated as [(Ti−Tz)/(C−Tz)×100=−50. which is the drug concentration resulting in a 50% reduction in the net protein increase (as measured by SRB staining) in control cells during the drug incubation.
# HCC2998/colon carcinoma = assay: NCI in vitro antiproliferative screen (SRB, GI50); assay type: cell-based, human
# Description: as §1, §2, §3, §4, §5
# [1] = test system: HOP92/non-small cell lung carcinoma; assay: NCI in vitro antiproliferative screen (SRB, GI50); assay type: cell-based, human
# Description: as §1, §2, §3, §4, §5
# [2] = test system: Cryptococcus neoformans ATCC 32045; assay: MIC broth microdilution assay
# Description: (§6) Test compound preparation: The test article was prepared as 100× stock solutions in DMSO, with concentrations ranging from 3.2 mg/ml to 0.0625 mg/ml (a two-fold dilution series over 10 points). The first dilution (3.2 mg/ml) was prepared by resuspending 0.5 mg of each test article in 156.25 μl of DMSO. The stock is then serially diluted by two-fold increments to obtain the desired concentration range.
# (§7) Inoculum preparation: For fungal strains, the inoculum was prepared as follows. From an overnight culture in Yeast Media broth, cell density was adjusted in 0.85% saline to 0.5 McFarland. This procedure yielded a stock suspension of about 5×10^6 cells/ml. Following thorough vortexing, a working suspension was prepared by diluting the stock 1:50 in RPMI 1640, and then further diluting it 1:20 with RPMI 1640 to obtain the 2× test inoculum (about 5×10^3 cells/ml). For filamentous fungi, the inoculum was prepared as follows. […]
# (§8) 50 μl of the final cell dilution (yeast, filamentous fungi or bacteria) of each indicator strain was added to each corresponding well of the microplate containing 50 μl of diluted drug or media alone. […] MIC readings were determined at 24 and 48 hrs for the Candida and Aspergillus species, and at 48 and 72 hrs for Cryptococcus neoformans. MIC readout for each indicator was determined as the lowest concentration of test compound resulting in total absence of growth.
# [3] = test system: Candida albicans ATCC 10231; assay: MIC broth microdilution assay
# Description: as §6, §7, §8
# [4] = test system: Aspergillus fumigatus ATCC 204305; assay: MIC broth microdilution assay
# Description: as §6, §7, §8
# [5] = test system: Saccharomyces cerevisiae ATCC 9763; assay: MIC broth microdilution assay
# Description: as §6, §7, §8
# [6] = test system: Candida glabrata LSPQ 0250; assay: MIC broth microdilution assay; settings: Nakaseomyces glabratus
# Description: as §6, §7, §8
# Candida krusei LSPQ 0309 = assay: MIC broth microdilution assay; settings: Pichia kudriavzevii
# Description: as §6, §7, §8
# [7] = test system: Aspergillus flavus ATCC 204304; assay: MIC broth microdilution assay
# Description: as §6, §7, §8
compound,measurement,setting,value
"CC(C=CCCC=CC=CC=CC=CC(=O)NC1=C(O)CCC1=O)C(O)C(C)C(O)C=CC=CC=CC=CC=CCC(OC1OC(C)C(O)C(O)C1O)C(C)C(=O)CC(O)CC(O)CC(O)C=CCC(O)CC(O)CC(O)CC(O)C=CCC(O)CC(O)CCCN (centres unmarked) [Compound 2(a), 56-Amino-15,17,33,35,37,41,43,45,47,51,53-undecahydroxy-14,16,30-trimethyl-31-oxo-29-(3,4,5-trihydroxy-6-methyl-tetrahydro-pyran-2-yloxy)-hexapentaconta-2,4,6,8,12,18,20,22,24,26,38,48-dodecaenoic acid (2-hydroxy-5-oxo-cyclopent-1-enyl)-amide]",GI50,"SN12C/renal carcinoma; Homo sapiens, SN12C, Renal cancer, 48 h",138 nM
same,GI50 level,"SN12C/renal carcinoma; SN12C/renal carcinoma, 48 hours",nanomolar or picomolar level
same,GI50 level,"HCC2998/colon carcinoma; HCC2998/colon carcinoma, 48 hours",nanomolar or picomolar level
same,GI50,"HCC2998/colon carcinoma; Homo sapiens, HCC-2998, Colon cancer, 48 h",60.3 nM
same,GI50 level,"[1]; HOP92/non-small cell lung carcinoma, 48 hours",nanomolar or picomolar level
same,GI50,"[1]; Homo sapiens, HOP-92, Non-small cell lung cancer, 48 h",97.7 nM
same,MIC,"[2]; ATCC32045, 48 h",2 µg/mL
same,MIC,"[2]; ATCC32045, 72 h",4 µg/mL
same,MIC,"[3]; ATCC10231, 24 h",4 µg/mL
same,MIC,"[3]; ATCC10231, 48 h",4 µg/mL
same,MIC,"[4]; ATCC204305, 24 h",16 µg/mL
same,MIC,"[4]; ATCC204305, 48 h",16 µg/mL
same,MIC,"[5]; ATCC9763, 24 h",4 µg/mL
same,MIC,"[5]; ATCC9763, 48 h",4 µg/mL
same,MIC,"[6]; LSPQ0250, 24 h",4 µg/mL
same,MIC,"[6]; LSPQ0250, 48 h",8 µg/mL
same,MIC,"Candida krusei LSPQ 0309; LSPQ0309, 24 h",8 µg/mL
same,MIC,"Candida krusei LSPQ 0309; LSPQ0309, 48 h",8 µg/mL
same,MIC,"[7]; ATCC204304, 24 h",4 µg/mL
same,MIC,"[7]; ATCC204304, 48 h",8 µg/mL

# From patent US7375088B2, “Polyene polyketides, processes for their production and their use as a pharmaceutical” (Thallion Pharmaceuticals Inc., priority 2003, dated 2008)
